Test results from PubChem BioAssay (NCI).
Several values for one entry are separate records, joined by “and”; a condition that tells them apart may be missing. Equal entries are not always repeated.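 Compound exposure: 48 hours, 5 concentrations, 96-well plates. At the GI50, growth is halved. Definition used: TGI = concentration required for complete inhibition of growth.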

Legend:
Test in all cases: NCI-60 cell line screen, 48 h
[1] = test system: HS 578T breast
[2] = test system: SF-268 CNS
[3] = test system: HT29 colon
[4] = test system: MOLT-4 leukemia
[5] = test system: PC-3 prostate
[6] = test system: SK-MEL-5 melanoma
[7] = test system: OVCAR-5 ovarian
[8] = test system: A498 renal
[9] = test system: UO-31 renal
[10] = test system: RPMI-8226 leukemia

Row | SMILES | GI50 [1] [µM] | TGI [1] [µM] | GI50 [2] [µM] | TGI [2] | GI50 [3] [µM] | TGI [3] | GI50 [4] [µM] | TGI [4] [µM] | GI50 [5] [µM] | TGI [5] | GI50 [6] [µM] | TGI [6] | GI50 [7] [µM] | TGI [7] | GI50 [8] [µM] | TGI [8] | GI50 [9] [µM] | TGI [9] [µM] | GI50 [10] [µM] | TGI [10]
1 | CS(=O)(=O)Nc1cc(-c2ccc3ncnc(Nc4cccc(Cl)c4F)c3c2)cnc1Cl | 0.274 | 2.77 | 1.41 | 19.3 µM | 3.3 | 38.4 µM | 2.31 | 8.46 | 2.27 | 11.6 µM | 1.66 | 3.29 µM | 2.17 | 19.1 µM | 1.68 | 4.1 µM | 1.24 | 4.3 | 2.21 | 6.11 µM
2 | O=[N+]([O-])c1ccc(NC(=S)N/N=C(\c2ccccc2)c2ccccn2)cc1 |  | 9.39 |  | 1.9 µM and 1.84 µM | 1.56 | 3.12 µM and 2.78 µM | 0.00433 | > 20.5 | 1.16 | 2.91 µM and 2.54 µM |  | 2.53 µM and 2.74 µM | 0.0772 | 2.58 µM and 4.58 µM | 1.41 | 2.71 µM and 3.21 µM |  | 2.79 | 1.2 | 5.6 µM and > 27 µM
3 | CCC(=O)OC1=CN2C(=NC(c3ccc(N)cc3)=CC2c2cc(OC)c(OC)c(OC)c2)S1 (stereo unspecified) | 3.6 | > 100 | 3.57 | 14.4 µM | 3.82 | 14.2 µM | 3.89 | 64.7 | 6.04 | 42.9 µM | 2.89 | 12 µM | 4.04 | 17.1 µM | 5.3 | 20.8 µM | 3.15 | 13.6 | 2.44 | 10 µM
4 | O=C(Nc1ccc(-c2ccnc(Nc3ccc(N4CCOCC4)cc3)n2)cc1)C1CCCN1 (stereo unspecified) | 3 | 24.8 | 4.9 | 44.8 µM | 3.89 | 23.3 µM | 3.04 | 33.2 | 1.79 | 31.9 µM | 3.31 | 18.9 µM | 14.6 | 30.7 µM | 6.4 | 17.9 µM | 4.06 | 24.2 | 4.61 | 24.7 µM
